Data: US11542240B2, “STK19 inhibitors for treatment of cancer” (TRUSTEES OF BOSTON UNIVERSITY, priority 2018, dated 2023)
Read-outs that look alike come from different tables or passages of the source.

Tests used:
[1] = tested on: hTERT/p53DD/CDK4(R24C) melanocytes xenograft; test: xenograft tumor formation of engineered melanocytes in nude mice; type: in vivo, mouse
Method: FIGS. 6B-6D. Growth curve, tumor weight, and dissected tumors for the xenograft experiments with indicated cells inoculated subcutaneously into flanks of nude mice treated with IV. Visible tumors were measured every three days. […] (FIGS. 6E-6G) Growth curve, tumor weight, and dissected tumors for the xenograft experiments with SK-MEL-2 cells inoculated subcutaneously into flanks of nude mice treated with IV. Visible tumors were measured every three days. […] (FIGS. 6H-6I) Effects of IV treatment on in vivo proliferation and apoptosis were evaluated by staining of the sections of tumor collected in G for Ki67 and cleaved caspase-3. The sections were counterstained with DAPI. Data are means±SD (n=7). Representative images were shown. Scale bar, 100 μm.
The inventors also performed immunofluorescence on SK-MEL-2 xenograft tumors to investigate the effects of IV on in vivo proliferation and apoptosis, represented by Ki67 and cleaved caspase-3 staining.

[2] = tested on: A375 cells; test: caspase activity assay (apoptosis), 4 days; type: cell-based, human; settings: A375, 4 days
From the text: (§1) In addition, the inventors investigated the growth inhibitory effects of IV in melanoma cells with different NRAS and BRAF status, including A375 and UACC62 (NRASWT, BRAFV600E), and SK-MEL-2 and WM2032 (NRASQ61R, BRAFWT).

[3] = tested on: SK-MEL-2 cells; test: caspase activity assay (apoptosis), 4 days; type: cell-based, human; settings: SK-MEL-2, 4 days
From the text: as §1

[4] = tested on: A375 cells; test: immunoblots of NRAS phosphorylation and NRAS signaling; type: cell-based, human; settings: A375 (NRASWT, BRAFV600E)
[5] = target: STK19 V134Y (Homo sapiens (Human), UniProt P49842, V134Y); test: STK19 kinase assay, V134Y mutant; settings: V134Y mutation
[6] = target: G9a histone lysine methyltransferase (Homo sapiens (Human), UniProt Q96KQ7); test: in vitro methyltransferase assay, G9a enzyme activity; type: biochemical; settings: read-out: IC50, inhibitory activity towards G9a histone lysine methyltransferase
[7] = target: panel of 468 diverse kinases (Homo sapiens, UniProt Q9NY57); test: biochemical; type: binding; settings: YANK2; 1000 nM; read-out: Percent Control
[8] = target: panel of 468 diverse kinases (Homo sapiens, UniProt Q8N4C8); test: biochemical; type: binding; settings: MINK; 1000 nM; read-out: Percent Control
[9] = target: panel of 468 diverse kinases (Homo sapiens, UniProt Q9UL54); test: biochemical; type: binding; settings: TAOK2; 1000 nM; read-out: Percent Control
[10] = target: panel of 468 diverse kinases (Homo sapiens, UniProt P51812); test: biochemical; type: binding; settings: 1000 nM, read-out: Percent Control
[11] = target: panel of 468 diverse kinases (Homo sapiens, UniProt Q9BYP7); test: biochemical; type: binding; settings: WNK3; 1000 nM; read-out: Percent Control
[12] = target: panel of 468 diverse kinases (Homo sapiens, UniProt P42679); test: biochemical; type: binding; settings: CTK; 1000 nM; read-out: Percent Control
[13] = target: panel of 468 diverse kinases (Homo sapiens, UniProt Q9UQM7); test: biochemical; type: binding; settings: CAMK2A; 1000 nM; read-out: Percent Control
[14] = target: panel of 468 diverse kinases (Homo sapiens, UniProt O94921); test: biochemical; type: binding; settings: PFTK1; 1000 nM; read-out: Percent Control
[15] = target: panel of 468 diverse kinases (Homo sapiens, UniProt O75716); test: biochemical; type: binding; settings: STK16; 1000 nM; read-out: Percent Control
[16] = target: panel of 468 diverse kinases (Homo sapiens, UniProt P43405); test: biochemical; type: binding; settings: SYK; 1000 nM; read-out: Percent Control
[17] = target: panel of 468 diverse kinases (Homo sapiens, UniProt Q9UIK4); test: biochemical; type: binding; settings: DAPK2; 1000 nM; read-out: Percent Control
[18] = target: panel of 468 diverse kinases (Homo sapiens, UniProt P10721, T670I/V559D); test: biochemical; type: binding; settings: KIT(V559D,T670I); 1000 nM; read-out: Percent Control
[19] = target: panel of 468 diverse kinases (Homo sapiens, UniProt P42336, E542K); test: biochemical; type: binding; settings: PIK3CA(E542K); 1000 nM; read-out: Percent Control
[20] = target: panel of 468 diverse kinases (Homo sapiens, UniProt P07947); test: biochemical; type: binding; settings: YES; 1000 nM; read-out: Percent Control
[21] = target: panel of 468 diverse kinases (Homo sapiens, UniProt P00533, DEL752-759); test: biochemical; type: binding; settings: EGFR(S752-I759del); 1000 nM; read-out: Percent Control
[22] = target: panel of 468 diverse kinases (Homo sapiens, UniProt Q9UKE5); test: biochemical; type: binding; settings: TNIK; 1000 nM; read-out: Percent Control
[23] = target: panel of 468 diverse kinases (Homo sapiens, UniProt Q9Y463); test: biochemical; type: binding; settings: DYRK1B; 1000 nM; read-out: Percent Control
[24] = target: panel of 468 diverse kinases (Homo sapiens, UniProt P00533, T790M); test: biochemical; type: binding; settings: EGFR(T790M); 1000 nM; read-out: Percent Control
[25] = target: panel of 468 diverse kinases (Homo sapiens, UniProt Q99755); test: biochemical; type: binding; settings: PIP5KIV; 1000 nM; read-out: Percent Control
[26] = target: panel of 468 diverse kinases (Homo sapiens, UniProt Q59H18); test: biochemical; type: binding; settings: TNNI3K; 1000 nM; read-out: Percent Control
[27] = target: panel of 468 diverse kinases (Homo sapiens, UniProt P29320); test: biochemical; type: binding; settings: EPHA3; 1000 nM; read-out: Percent Control
Sequence of panel of 468 diverse kinases (Homo sapiens, UniProt P29320) (P29320 21-983 limits assumed): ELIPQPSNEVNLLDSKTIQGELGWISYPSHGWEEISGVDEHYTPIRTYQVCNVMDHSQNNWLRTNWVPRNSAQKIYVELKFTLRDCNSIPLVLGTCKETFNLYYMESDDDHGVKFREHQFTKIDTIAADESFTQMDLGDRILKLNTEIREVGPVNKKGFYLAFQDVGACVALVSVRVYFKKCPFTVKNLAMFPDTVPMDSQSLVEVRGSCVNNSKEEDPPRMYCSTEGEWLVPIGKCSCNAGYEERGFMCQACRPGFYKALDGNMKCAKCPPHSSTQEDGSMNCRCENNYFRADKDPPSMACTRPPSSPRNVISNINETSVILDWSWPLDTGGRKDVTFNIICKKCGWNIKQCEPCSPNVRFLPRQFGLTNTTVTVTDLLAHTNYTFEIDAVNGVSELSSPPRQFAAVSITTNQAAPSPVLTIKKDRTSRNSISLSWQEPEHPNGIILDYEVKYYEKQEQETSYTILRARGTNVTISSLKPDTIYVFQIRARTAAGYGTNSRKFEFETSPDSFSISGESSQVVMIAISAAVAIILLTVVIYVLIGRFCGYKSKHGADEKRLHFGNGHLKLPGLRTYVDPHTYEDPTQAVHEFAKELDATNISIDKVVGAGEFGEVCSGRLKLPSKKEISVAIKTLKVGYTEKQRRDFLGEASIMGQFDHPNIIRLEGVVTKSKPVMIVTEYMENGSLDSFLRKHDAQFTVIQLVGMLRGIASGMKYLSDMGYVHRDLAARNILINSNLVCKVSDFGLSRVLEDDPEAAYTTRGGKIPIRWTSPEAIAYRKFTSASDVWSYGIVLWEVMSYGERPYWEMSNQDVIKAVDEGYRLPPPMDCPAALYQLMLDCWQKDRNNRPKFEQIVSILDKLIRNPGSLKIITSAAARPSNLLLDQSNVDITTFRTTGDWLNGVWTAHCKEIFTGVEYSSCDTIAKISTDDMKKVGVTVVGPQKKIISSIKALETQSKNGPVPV

Sequence of panel of 468 diverse kinases (Homo sapiens, UniProt P07947) (P07947 2-543 limits assumed): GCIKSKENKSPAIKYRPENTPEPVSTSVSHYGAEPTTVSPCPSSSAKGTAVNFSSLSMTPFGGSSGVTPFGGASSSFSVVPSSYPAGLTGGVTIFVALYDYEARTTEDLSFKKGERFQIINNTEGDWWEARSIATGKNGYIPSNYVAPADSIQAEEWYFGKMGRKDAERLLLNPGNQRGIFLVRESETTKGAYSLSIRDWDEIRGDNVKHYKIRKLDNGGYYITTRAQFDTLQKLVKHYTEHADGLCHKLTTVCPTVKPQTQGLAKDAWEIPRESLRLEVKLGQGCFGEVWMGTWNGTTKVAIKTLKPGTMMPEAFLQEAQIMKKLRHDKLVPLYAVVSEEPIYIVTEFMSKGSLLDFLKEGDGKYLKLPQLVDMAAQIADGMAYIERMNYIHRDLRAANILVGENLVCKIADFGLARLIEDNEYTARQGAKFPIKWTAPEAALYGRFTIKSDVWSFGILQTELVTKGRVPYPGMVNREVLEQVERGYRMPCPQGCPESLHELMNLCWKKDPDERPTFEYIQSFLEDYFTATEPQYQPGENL
Sequence of panel of 468 diverse kinases (Homo sapiens, UniProt P00533, DEL752-759) (P00533 with tags, fused parts or gaps DEL752-759 limits assumed): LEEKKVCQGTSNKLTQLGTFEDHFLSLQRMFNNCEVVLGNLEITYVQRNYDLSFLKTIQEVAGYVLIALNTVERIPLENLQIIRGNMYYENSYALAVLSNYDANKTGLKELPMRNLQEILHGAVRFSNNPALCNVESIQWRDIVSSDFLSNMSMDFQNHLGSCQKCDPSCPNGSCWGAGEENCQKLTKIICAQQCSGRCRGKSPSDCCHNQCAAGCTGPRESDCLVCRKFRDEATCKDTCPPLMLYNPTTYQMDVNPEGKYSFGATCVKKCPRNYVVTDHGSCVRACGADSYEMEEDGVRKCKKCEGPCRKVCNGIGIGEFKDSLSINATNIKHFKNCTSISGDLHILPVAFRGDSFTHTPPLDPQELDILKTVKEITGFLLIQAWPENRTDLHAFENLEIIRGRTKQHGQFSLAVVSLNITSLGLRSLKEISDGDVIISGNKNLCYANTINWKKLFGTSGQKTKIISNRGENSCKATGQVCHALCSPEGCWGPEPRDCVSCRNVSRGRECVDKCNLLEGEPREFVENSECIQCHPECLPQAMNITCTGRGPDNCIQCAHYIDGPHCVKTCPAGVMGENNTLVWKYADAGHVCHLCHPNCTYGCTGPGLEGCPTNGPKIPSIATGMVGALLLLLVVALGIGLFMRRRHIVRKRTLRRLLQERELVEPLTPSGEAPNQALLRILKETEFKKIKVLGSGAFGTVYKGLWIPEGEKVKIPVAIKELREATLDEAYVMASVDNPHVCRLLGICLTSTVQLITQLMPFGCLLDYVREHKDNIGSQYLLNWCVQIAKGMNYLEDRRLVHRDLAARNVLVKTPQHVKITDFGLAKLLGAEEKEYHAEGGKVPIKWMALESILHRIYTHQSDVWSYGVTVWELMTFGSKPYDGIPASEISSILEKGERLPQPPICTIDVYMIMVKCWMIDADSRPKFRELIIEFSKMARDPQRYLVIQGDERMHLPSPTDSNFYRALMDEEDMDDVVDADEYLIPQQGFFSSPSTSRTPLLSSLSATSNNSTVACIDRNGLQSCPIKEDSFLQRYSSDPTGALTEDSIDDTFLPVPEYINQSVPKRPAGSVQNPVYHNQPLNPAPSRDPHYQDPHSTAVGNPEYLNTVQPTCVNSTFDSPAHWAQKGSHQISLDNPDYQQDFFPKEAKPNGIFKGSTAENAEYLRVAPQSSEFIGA
Sequence of panel of 468 diverse kinases (Homo sapiens, UniProt O75716) (O75716 2-305 limits assumed): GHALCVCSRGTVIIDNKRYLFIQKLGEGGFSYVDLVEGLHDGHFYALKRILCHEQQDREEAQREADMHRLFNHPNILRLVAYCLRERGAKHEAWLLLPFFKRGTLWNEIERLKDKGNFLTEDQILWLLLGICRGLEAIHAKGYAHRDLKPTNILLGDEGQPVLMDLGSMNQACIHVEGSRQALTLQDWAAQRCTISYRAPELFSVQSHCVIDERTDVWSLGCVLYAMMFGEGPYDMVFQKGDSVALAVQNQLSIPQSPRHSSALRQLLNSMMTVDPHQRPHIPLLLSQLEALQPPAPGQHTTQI
Sequence of STK19 V134Y (P49842 other isoform, or with tags, fused parts or gaps V134Y): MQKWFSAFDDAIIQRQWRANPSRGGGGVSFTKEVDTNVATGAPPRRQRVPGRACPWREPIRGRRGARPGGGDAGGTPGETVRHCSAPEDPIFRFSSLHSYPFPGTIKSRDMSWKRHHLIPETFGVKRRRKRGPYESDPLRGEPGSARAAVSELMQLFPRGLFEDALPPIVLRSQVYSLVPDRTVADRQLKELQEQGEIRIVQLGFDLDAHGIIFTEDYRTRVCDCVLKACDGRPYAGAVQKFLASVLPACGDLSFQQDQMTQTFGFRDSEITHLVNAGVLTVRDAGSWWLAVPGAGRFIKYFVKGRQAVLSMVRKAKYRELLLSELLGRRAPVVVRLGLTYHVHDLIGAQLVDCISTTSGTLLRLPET
Sequence of panel of 468 diverse kinases (Homo sapiens, UniProt P00533, T790M) (P00533 25-1210 T790M limits assumed): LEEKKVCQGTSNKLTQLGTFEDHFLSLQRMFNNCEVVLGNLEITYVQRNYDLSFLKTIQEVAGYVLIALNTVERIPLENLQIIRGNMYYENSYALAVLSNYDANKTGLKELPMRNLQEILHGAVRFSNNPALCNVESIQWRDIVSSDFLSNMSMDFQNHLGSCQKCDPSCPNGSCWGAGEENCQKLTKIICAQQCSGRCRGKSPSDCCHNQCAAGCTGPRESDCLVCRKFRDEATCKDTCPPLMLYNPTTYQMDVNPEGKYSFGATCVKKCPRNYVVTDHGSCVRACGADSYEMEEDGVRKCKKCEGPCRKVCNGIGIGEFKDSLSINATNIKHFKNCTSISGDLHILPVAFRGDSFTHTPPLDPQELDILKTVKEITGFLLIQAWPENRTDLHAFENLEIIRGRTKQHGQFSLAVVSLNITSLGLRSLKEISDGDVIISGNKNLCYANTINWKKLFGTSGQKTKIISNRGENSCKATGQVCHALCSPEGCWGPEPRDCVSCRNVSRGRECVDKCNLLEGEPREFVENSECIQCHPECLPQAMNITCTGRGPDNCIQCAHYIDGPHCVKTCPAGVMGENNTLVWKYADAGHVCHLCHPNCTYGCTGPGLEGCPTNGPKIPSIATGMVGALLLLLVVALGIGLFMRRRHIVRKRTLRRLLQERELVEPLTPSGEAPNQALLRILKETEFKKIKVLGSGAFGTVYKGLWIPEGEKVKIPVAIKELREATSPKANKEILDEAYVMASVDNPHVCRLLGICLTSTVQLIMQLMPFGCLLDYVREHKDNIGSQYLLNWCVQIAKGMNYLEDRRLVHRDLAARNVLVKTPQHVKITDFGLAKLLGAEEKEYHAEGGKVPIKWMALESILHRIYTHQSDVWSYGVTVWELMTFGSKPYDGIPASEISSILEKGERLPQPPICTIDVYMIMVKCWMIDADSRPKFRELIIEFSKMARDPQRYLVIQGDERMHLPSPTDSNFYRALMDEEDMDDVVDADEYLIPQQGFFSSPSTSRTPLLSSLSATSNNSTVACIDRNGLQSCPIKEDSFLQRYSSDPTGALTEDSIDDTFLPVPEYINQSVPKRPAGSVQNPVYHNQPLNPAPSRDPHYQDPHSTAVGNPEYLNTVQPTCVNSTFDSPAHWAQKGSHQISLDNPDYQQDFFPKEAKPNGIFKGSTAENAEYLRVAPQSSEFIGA

Compound: COc1cc2nc(NC3CC3)nc(NC3CCN(C(C)C)CC3)c2cc1OC [Formula IV]
- mutant NRAS/STK19-driven melanocyte tumor formation [1]: significantly inhibited
- apoptosis [2]: reduced impact
- apoptosis [3]: induced apoptosis
- NRAS signaling, including MEK-ERK and PI3K pathways [4]: much less effective
- inhibitory potential of IV for STK19 V134Y [5]: remarkably compromised
- IC50 [6]: 467 nM
- remaining activity at 1 µM [7]: 56%
- remaining activity at 1 µM [8]: 69%
- remaining activity at 1 µM [9]: 87%
- remaining activity at 1 µM ([10]; RSK2(Kin.Dom.1-N-terminal)): 67%
- remaining activity at 1 µM ([10]; RSK2(Kin.Dom.2-C-terminal)): 53%
- remaining activity at 1 µM [11]: 69%
- remaining activity at 1 µM [12]: 32%
- remaining activity at 1 µM [13]: 87%
- remaining activity at 1 µM [14]: 98%
- remaining activity at 1 µM [15]: 83%
- remaining activity at 1 µM [16]: 99%
- remaining activity at 1 µM [17]: 93%
- remaining activity at 1 µM [18]: 86%
- remaining activity at 1 µM [19]: 70%
- remaining activity at 1 µM [20]: 100%
- remaining activity at 1 µM [21]: 100%
- remaining activity at 1 µM [22]: 98%
- remaining activity at 1 µM [23]: 86%
- remaining activity at 1 µM [24]: 44%
- remaining activity at 1 µM [25]: 96%
- remaining activity at 1 µM [26]: 96%
- remaining activity at 1 µM [27]: 93%
